Results reported in patent publication US6572788B2, “Amine oxide wood preservatives” (Lonza, Inc., priority 2000, dated 2003).
Converted amounts (≈) assume the structure as drawn. “And” between values parts separate entries of the source, which are not always exact repeats. Identical values can stand only once. Like-named read-outs stand apart in the source and are kept apart here.

What was measured:
[1] = tested on: P. placenta (brown rot fungi); assay: Agar dilution plate method, wood rot fungi; type: cell-based; settings: for MIC: read-out: MIC (ppm of amine oxides)
Description: (§1) The efficacy of the aqueous amine oxide solutions in Table 14 at various concentrations against the wood rot fungi T. versicolor (white rot fungi), G. trabeum (brown rot fungi), P. placenta (brown rot fungi), and C. globosum (soft rot decay fungi) were determined using the agar dilution plate method well known in the art. […] The percent retardation of the fungi was determined by the percentage change in the diameter of the fungi on the agar plate (i.e. Percent Retardation=((Diameter of Control)−(Diameter of Treated Fungi))/(Diameter of Control)*100%).

[2] = tested on: G. trabeum (brown rot fungi); assay: Agar dilution plate method, wood rot fungi; type: cell-based; settings: for MIC: Gloeophyllum trabeum, read-out: MIC (ppm of amine oxides)
Description: as §1

[3] = tested on: C. globosum (soft rot decay fungi); assay: Agar dilution plate method, wood rot fungi; type: cell-based; settings: for MIC: Chaetomium globosum, read-out: MIC (ppm of amine oxides)
Description: as §1

[4] = tested on: T. versicolor (white rot fungi); assay: Agar dilution plate method, wood rot fungi; type: cell-based; settings: for MIC: Trametes versicolor, read-out: MIC (ppm of amine oxides)
Description: as §1

[5] = tested on: Trametes versicolor (T. versicolor), a white rot fungus; assay: Agar plate method, fungus growth inhibition; type: cell-based; settings: 50% retardation of growth
Description: (§2) The efficacy of aqueous solutions of amine oxides and didecyldimethyl ammonium chloride to inhibit fungus growth was evaluated by the agar plate method known in the art. […] The fungi tested were Trametes versicolor (T. versicolor), a white rot fungus; Gloeophyllum trabeum (G. trabeum), a brown rot fungus which is tolerant of arsenic and phenolic type wood preservatives; Poria placenta (P. placenta), a brown rot fungus which is tolerant to copper in wood preservatives; Lentinus lepideus (L. lepideus), a brown rot fungus which is tolerant to creosote; Coniophora puteana (C. puteana), a brown rot fungus; and Chaetomium globsum (C. globsum), a soft rot fungus.

[6] = tested on: Chaetomium globsum (C. globsum), a soft rot fungus; assay: Agar plate method, fungus growth inhibition; type: cell-based
Description: as §2

[7] = tested on: Gloeophyllum trabeum (G. trabeum), a brown rot fungus; assay: Agar plate method, fungus growth inhibition; type: cell-based
Description: as §2

[8] = tested on: Poria placenta (P. placenta), a brown rot fungus; assay: Agar plate method, fungus growth inhibition; type: cell-based
Description: as §2

[9] = tested on: stains, molds, and fungi; assay: Wood preserving efficacy on freshly cut white birch wood (dip treatment, sealed bag); design: key: 4 - Clean with no visible stain or mold; 3 - Trace amount of white/black fungal growth; 2 - Black and/or white fungal growth visible on all faces and ends; 1 - Heavy fungal growth
Description: The wood preserving efficacy of each aqueous test solution in Table 1 below was tested on freshly cut white birch wood as follows. All percentages in Table 1 are by weight. A branch of white birch tree measuring about 3 inches in diameter was cut into pieces about 6 inch in length. Each piece was then split into 4 sections. Each section was dipped into the test solution for about 1 minute and blotted with a paper towel to remove excess liquid. The sections were sealed in a clear plastic bag and stored at ambient conditions. The sections were observed after 1, 3, 7, and 12 weeks for the growth of stains, molds, and fungi. The aqueous test solutions were prepared by mixing the active ingredient with water.

[10] = tested on: stains, molds, and fungi; assay: Wood preserving efficacy on freshly cut green chestnut oak (dip treatment); design: scale not given here
[11] = tested on: stains, molds, and fungi; assay: Wood preserving efficacy on freshly cut tulip wood (dip treatment); also: key: 4 - Clean with no visible stain or mold; 3 - Trace amount of white/black fungal growth; 2 - Black and/or white fungal growth visible on all faces and ends; 1 - Heavy fungal growth
Description: The wood preserving efficacy of each aqueous test solution in Table 17 below was tested on freshly cut tulip wood (also known as Tulip-Popular, Yellow Popular, and Liriodendron tulipfera L.) as follows. All percentages in Table 17 are by weight. Pieces of tulip wood cut from a 4″ debarked branch were cut into pieces. Each piece was then split into 4 sections. Each section was dipped into the test solution for about 1 minute and blotted with a paper towel to remove excess liquid. The sections were sealed in a clear plastic bag and stored at ambient conditions. The sections were observed after 1, 3, 7, and 11 weeks for the growth of stains, molds, and fungi. The aqueous test solutions were prepared by mixing the active ingredient with water.

[12] = tested on: stains, molds, and fungi; assay: Wood preserving efficacy on freshly cut beech wood (dip treatment); settings: beech wood pieces (Example 15); also: key: 4 - Clean with no visible stain or mold; 3 - Trace amount of white/black fungal growth; 2 - Black and/or white fungal growth visible on all faces and ends; 1 - Heavy fungal growth
Description: The wood preserving efficacy of each aqueous test solution in Table 18 below was tested on freshly cut beech wood (Fagus grandifolia Ehrh.) as follows. All percentages in Table 18 are by weight. A 1″ branch of a beech tree was split into two pieces. The bark was left on the pieces. Each piece was dipped into the test solution for about 1 minute and blotted with a paper towel to remove excess liquid. […] The aqueous test solutions were prepared by mixing the active ingredient with water.

[13] = P. placenta, 100% growth retardation, Table 14
[14] = G. trabeum, 100% growth retardation, Table 14
[15] = C. globosum, 100% growth retardation, Table 14
[16] = T. versicolor, 100% growth retardation, Table 14
[17] = 3 weeks, listed as 0.5% Dodecyl DMAO
[18] = 3 weeks, listed as 1.0% Dodecyl DMAO
[19] = 7 weeks, listed as 0.5% Dodecyl DMAO
[20] = 7 weeks, listed as 1.0% Dodecyl DMAO
[21] = 11 weeks, listed as 0.5% Dodecyl DMAO
[22] = 11 weeks, listed as 1.0% Dodecyl DMAO

## CCCCCCCCCCCCCCCCCC[N+](C)(C)[O-] [Octadecyl dimethylamine oxide]
[1]; [13]
  MIC: > 1000 µg/mL
[2]; [14]
  MIC: > 1000 µg/mL
[3]; [15]
  MIC: > 1000 µg/mL
[4]; [16]
  MIC: > 1000 µg/mL
[5]
  IC50: 800 ppm
[6]
  IC50: 600 ppm
[7]
  IC50: 250 ppm
[8]
  IC50: 20-50 ppm

## Coco-di(hydroxyethyl)amine oxide
[1]; [13]
  MIC (ppm of amine oxides): 500 ppm
[2]; [14]
  MIC (ppm of amine oxides): 500 ppm
[3]; [15]
  MIC (ppm of amine oxides): >1000 ppm
[4]; [16]
  MIC (ppm of amine oxides): 500 ppm

## CCCCCCCCCCCCCC[N+](C)(C)[O-] [Tetradecyl dimethylamine oxide]
[1]; [13]
  MIC: > 1000 µg/mL
[2]; [14]
  MIC: > 1000 µg/mL
[3]; [15]
  MIC: > 1000 µg/mL
[4]; [16]
  MIC: > 1000 µg/mL
[5]
  IC50: 70 ppm
[6]
  IC50: 80-100 ppm
[7]
  IC50: 15-25 ppm
[8]
  IC50: 2-5 ppm
[9]; 1 week
  Rating of treated white birch sections vs. Time: 4
[9]; 3 weeks
  Rating of treated white birch sections vs. Time: 3
[9]; 7 weeks
  Rating of treated white birch sections vs. Time: 2
[9]; 12 weeks
  Rating of treated white birch sections vs. Time: 2

## CC(O)(P(=O)(O)O)P(=O)(O)O [1-Hydroxyethylidene-1,1-diphosphonic acid]
[10]; 2 weeks
  Rating of treated green chestnut oak sections vs. Time: 2
[10]; 4 weeks
  Rating of treated green chestnut oak sections vs. Time: 2
[10]; 5 weeks
  Rating of treated green chestnut oak sections vs. Time: 1
[10]; 9 weeks
  Rating of treated green chestnut oak sections vs. Time: 1

## CCCCCCCC[N+](C)(C)[O-] [Octyldimethylamine oxide]
[1]; [13]
  MIC: 1000 µg/mL (≈ 5.77 mM)
[2]; [14]
  MIC: 1000 µg/mL (≈ 5.77 mM)
[3]; [15]
  MIC: > 1000 µg/mL
[4]; [16]
  MIC: 750 µg/mL (≈ 4.33 mM)
[5]
  IC50: 800 ppm
[6]
  IC50: 400 ppm
[7]
  IC50: 250-400 ppm
[8]
  IC50: 300 ppm

## Tallow di(hydroxyethyl)amine oxide
[1]; [13]
  MIC (ppm of amine oxides): >1000 ppm
[2]; [14]
  MIC (ppm of amine oxides): >1000 ppm
[3]; [15]
  MIC (ppm of amine oxides): >1000 ppm
[4]; [16]
  MIC (ppm of amine oxides): >1000 ppm

## CCCCCCCCCC[N+](C)(C)[O-] [Decyldimethylamine oxide]
[1]; [13]
  MIC: 500 µg/mL (≈ 2.48 mM)
[2]; [14]
  MIC: 250 µg/mL (≈ 1.24 mM)
[3]; [15]
  MIC: > 1000 µg/mL
[4]; [16]
  MIC: 750 µg/mL (≈ 3.72 mM)
[5]
  IC50: 300-500 ppm
[6]
  IC50: 50-100 ppm
[7]
  IC50: 20-40 ppm
[8]
  IC50: 15-25 ppm
[9]; 1 week
  Rating of treated white birch sections vs. Time: 3
[9]; 3 weeks
  Rating of treated white birch sections vs. Time: 2
[9]; 7 weeks
  Rating of treated white birch sections vs. Time: 2
[9]; 12 weeks
  Rating of treated white birch sections vs. Time: 2

## CCCCCCCCCCCC[N+](C)(C)[O-] [Dodecyl dimethylamine oxide, dodecyl dimethylamine oxide]
[11]; 1 week
  Rating of treated tulip sections vs. Time: 4
[11]; [17]
  Rating of treated tulip sections vs. Time: 3
[11]; [18]
  Rating of treated tulip sections vs. Time: 4
[11]; [19]
  Rating of treated tulip sections vs. Time: 2
[11]; [20]
  Rating of treated tulip sections vs. Time: 4 and 3
[11]; [21]
  Rating of treated tulip sections vs. Time: 1
[11]; [22]
  Rating of treated tulip sections vs. Time: 4
[1]
  MIC: 250 µg/mL (≈ 1.09 mM)
[2]
  MIC: 250 µg/mL (≈ 1.09 mM)
[3]
  MIC: > 1000 µg/mL
[4]
  MIC: 250 µg/mL (≈ 1.09 mM)
[10]; 2 weeks
  Rating of treated green chestnut oak sections vs. Time: 3
[10]; 4 weeks
  Rating of treated green chestnut oak sections vs. Time: 2
[10]; 5 weeks
  Rating of treated green chestnut oak sections vs. Time: 2
[10]; 9 weeks
  Rating of treated green chestnut oak sections vs. Time: 1
[12]; 1 week, listed as 0.5% Dodecyl DMAO
  Rating of treated tulip sections vs. Time: 4
[12]; 1 week, listed as 1.0% Dodecyl DMAO
  Rating of treated tulip sections vs. Time: 4 and 3.5
[12]; [17]
  Rating of treated tulip sections vs. Time: 4
[12]; [18]
  Rating of treated tulip sections vs. Time: 2 and 3
[12]; [19]
  Rating of treated tulip sections vs. Time: 2.5
[12]; [20]
  Rating of treated tulip sections vs. Time: 2
[12]; [21]
  Rating of treated tulip sections vs. Time: 2.5
[12]; [22]
  Rating of treated tulip sections vs. Time: 2 and 1

## CCCCCCCCCCCC[N+](C)([O-])Cc1ccccc1 (centres unmarked) [Dodecyl-BMAO]
[1]; [13]
  MIC (ppm of amine oxides): >1000 ppm
[2]; [14]
  MIC (ppm of amine oxides): 1000 ppm
[3]; [15]
  MIC (ppm of amine oxides): >1000 ppm
[4]; [16]
  MIC (ppm of amine oxides): >1000 ppm

## CCCCCCCCCCCC[N+]1([O-])CCOCC1 [Lauryl morpholine N-oxide, lauryl morpholine N-oxide]
[1]; [13]
  MIC (ppm of amine oxides): 500 ppm
[2]; [14]
  MIC (ppm of amine oxides): 1000 ppm
[3]; [15]
  MIC (ppm of amine oxides): >1000 ppm
[4]; [16]
  MIC (ppm of amine oxides): 750 ppm
